From patent US8796268B2, “Heteroaryls and uses thereof” (Millennium Pharmaceuticals, Inc., priority 2010, dated 2014)

Tests used:
Human PI3K alpha = molecular target: T1, Human PI3K alpha (Homo sapiens, UniProt P42336); assay: Human PI3K alpha enzyme assay (HTRF); assay type: biochemical; conditions: read-out: PI3Kalpha IC50
T1 construct: His (N); host or cells: SF9 insect cells (baculovirus)
Excerpt: (§1) The catalytic subunits of PI3Ks are cloned into either pDEST8(p110 alpha) or pDEST10(p110beta, p110delta, and p110gamma) as N-terminal His tagged fusion proteins using the Gateway system (Invitrogen, catalog#11804-010 for pDEST8 and 11806-015 for pDEST10). The sequences are verified before recombinant protein expression using the Baculovirus Expression System with Gateway® Technology. The accession numbers for the subunits are as follows: • p110 alpha (GB:U79143) • p110beta (GB: S67334) • p110delta (GB: U86453) • p110gamma (GB: X83368) • The regulatory subunits of PI3Ks are cloned into pDEST8 as un-tagged protein using the Gateway system (Catalog#11804-010). The sequences are verified before recombinant protein expression using the Baculovirus Expression System with Gateway® Technology. The accession numbers for the subunits are as following: • p85 alpha (GB: BC030815) • p101(GB: AB028925) • VPS34 (accession number GB:BC033004) is cloned into pDEST20—Thombin as N-terminal GST tagged fusion proteins using the Gateway system (Invitrogen, catalog#11804-013). The sequences are verified before recombinant protein expression using the Baculovirus Expression System with Gateway® Technology.
(§2) For expression of the p110 complexes, the p85 (MOI of 4) is co-infected with p110 alpha, beta, and delta respectively (1MOI) in SF9 cells and harvested at 60 hours post co-infection. P110 gamma was infected at 1 MOI and harvested at 60 hours post infection.
(§3) For purification, PI3Ks are purified by Ni-NTA Agarose (Qiagen #30250) followed by Mono Q 10/100 GL (Ge Healthcare #17-5167-01). VPS34 is purified by Glutathione Sepharose 4 Fast Flow (GE Healthcare #17-5132-03) followed by HiTrap Q (GE Healthcare #17-1153-01).
1) Human PI3K alpha enzyme assay method
(§4) 0.5 uL compounds in DMSO are added to wells of a 384 well microtitre plate (Corning 3575). At room temperature: 10 ul PI3K reaction buffer (50 mM Hepes, 5 mM DTT, 150 mM NaCl, 10 mM beta-glycerophosphate, 10 mM MgCl2, 0.25 mM sodium cholate and 0.001% CHAPS, pH 7.00) containing ATP (25 uM, Promega) is added followed immediately by 10 ul PI3K reaction buffer containing di-C8 P1(4,5)P2 (3.5 uM, CellSignals) and PI3Kalpha (0.4875 nM, Millennium Protein Sciences Group) and the mixture is incubated with shaking at room temperature for 30 minutes. Then 5 ul PI3K stop mix (50 mM Hepes, 5 mM DTT, 150 mM NaCl, 0.01% Tween-20, 15 mM EDTA and 25 nM biotin-PI(3,4,5)P3 (Echelon) is added to quench the reaction followed immediately by addition of 5 ul HTRF detection mix (50 mM Hepes, 5 mM DTT, 150 mM NaCl, 0.01% Tween-20, 40 mM KF, 1.0 nM GST:GRP-1 PH domain (Millennium Protein Sciences Group), 15 nM Streptavidin-XL (CisBio) and 0.375 nM anti-GST Eu++ antibody (CisBio) at pH 7.00). The plates are then incubated for 1 hour at room temperature with shaking and then read on a BMG PheraStar Plus reader.
(§5) For the assay methods described above, test compound percent inhibition, at various concentrations, is calculated relative to control (DMSO and EDTA) treated samples. Compound concentration versus percent inhibition curves are fitted to generate IC50 values. One skilled in the art will appreciate that the values generated either as percentage inhibition at a single concentration or IC50 values are subject to experimental variation.

Human PI3K beta = molecular target: T2, Human PI3K beta (Homo sapiens, UniProt P42338); assay: Human PI3K beta enzyme assay (HTRF); assay type: biochemical; conditions: read-out: PI3 Kbeta IC50
T2 construct: His (N); host or cells: SF9 insect cells (baculovirus)
Excerpt: as §1, §2, §3, §4
2) Human PI3K beta, delta and gamma isoforms are tested using the procedure described for PI3K alpha above but with the following changes: PI3K beta (5.25 nM), PI3K delta (0.75 nM) and PI3K gamma (5 nM). All isoforms supplied by Millennium Protein Science Group.
as §5

T2 sequence (P42338 whole entry): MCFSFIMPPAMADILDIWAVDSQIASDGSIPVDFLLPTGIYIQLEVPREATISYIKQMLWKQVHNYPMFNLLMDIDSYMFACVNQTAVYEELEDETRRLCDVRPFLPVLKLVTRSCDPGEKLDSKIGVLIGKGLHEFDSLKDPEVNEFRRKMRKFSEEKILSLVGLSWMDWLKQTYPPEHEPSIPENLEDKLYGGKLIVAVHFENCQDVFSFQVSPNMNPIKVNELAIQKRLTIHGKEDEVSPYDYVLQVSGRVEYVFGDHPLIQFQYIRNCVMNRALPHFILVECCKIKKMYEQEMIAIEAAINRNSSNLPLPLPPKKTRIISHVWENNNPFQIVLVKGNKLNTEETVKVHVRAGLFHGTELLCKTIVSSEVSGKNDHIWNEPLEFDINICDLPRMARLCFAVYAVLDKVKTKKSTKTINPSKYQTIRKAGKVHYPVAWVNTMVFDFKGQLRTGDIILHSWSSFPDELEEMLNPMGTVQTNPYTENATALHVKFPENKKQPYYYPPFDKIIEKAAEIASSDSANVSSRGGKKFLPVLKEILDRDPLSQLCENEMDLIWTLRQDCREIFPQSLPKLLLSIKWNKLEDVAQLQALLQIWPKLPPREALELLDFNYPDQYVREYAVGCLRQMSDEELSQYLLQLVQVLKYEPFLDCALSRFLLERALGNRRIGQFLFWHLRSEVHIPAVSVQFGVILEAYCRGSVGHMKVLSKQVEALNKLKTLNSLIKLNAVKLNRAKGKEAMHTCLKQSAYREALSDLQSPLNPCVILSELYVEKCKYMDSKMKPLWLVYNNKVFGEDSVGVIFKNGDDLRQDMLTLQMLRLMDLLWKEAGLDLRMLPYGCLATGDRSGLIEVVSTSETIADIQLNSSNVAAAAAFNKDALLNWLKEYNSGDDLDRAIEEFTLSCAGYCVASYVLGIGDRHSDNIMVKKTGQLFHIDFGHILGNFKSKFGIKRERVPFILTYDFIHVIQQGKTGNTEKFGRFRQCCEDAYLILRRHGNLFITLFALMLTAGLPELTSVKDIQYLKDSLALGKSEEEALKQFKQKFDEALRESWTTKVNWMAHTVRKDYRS
T2 sequence (P27986 whole entry partner): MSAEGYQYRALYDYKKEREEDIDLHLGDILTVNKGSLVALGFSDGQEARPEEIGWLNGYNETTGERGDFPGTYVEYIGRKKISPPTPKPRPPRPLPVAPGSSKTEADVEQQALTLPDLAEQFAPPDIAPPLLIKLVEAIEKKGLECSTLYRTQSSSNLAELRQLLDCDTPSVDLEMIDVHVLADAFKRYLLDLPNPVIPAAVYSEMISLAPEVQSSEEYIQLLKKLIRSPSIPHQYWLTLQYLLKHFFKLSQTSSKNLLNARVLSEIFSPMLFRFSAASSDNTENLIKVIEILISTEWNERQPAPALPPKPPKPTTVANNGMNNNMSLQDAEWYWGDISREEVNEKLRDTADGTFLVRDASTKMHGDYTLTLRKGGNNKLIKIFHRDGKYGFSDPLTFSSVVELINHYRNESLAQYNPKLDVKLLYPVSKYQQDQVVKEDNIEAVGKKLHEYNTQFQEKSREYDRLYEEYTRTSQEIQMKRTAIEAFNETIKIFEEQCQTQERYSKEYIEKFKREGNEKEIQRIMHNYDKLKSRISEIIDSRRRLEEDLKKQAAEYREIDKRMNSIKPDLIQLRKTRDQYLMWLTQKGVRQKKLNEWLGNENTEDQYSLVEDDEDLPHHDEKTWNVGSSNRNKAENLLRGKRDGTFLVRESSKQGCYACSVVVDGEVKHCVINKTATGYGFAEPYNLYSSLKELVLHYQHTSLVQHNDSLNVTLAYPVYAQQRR
T1 sequence (P42336 whole entry): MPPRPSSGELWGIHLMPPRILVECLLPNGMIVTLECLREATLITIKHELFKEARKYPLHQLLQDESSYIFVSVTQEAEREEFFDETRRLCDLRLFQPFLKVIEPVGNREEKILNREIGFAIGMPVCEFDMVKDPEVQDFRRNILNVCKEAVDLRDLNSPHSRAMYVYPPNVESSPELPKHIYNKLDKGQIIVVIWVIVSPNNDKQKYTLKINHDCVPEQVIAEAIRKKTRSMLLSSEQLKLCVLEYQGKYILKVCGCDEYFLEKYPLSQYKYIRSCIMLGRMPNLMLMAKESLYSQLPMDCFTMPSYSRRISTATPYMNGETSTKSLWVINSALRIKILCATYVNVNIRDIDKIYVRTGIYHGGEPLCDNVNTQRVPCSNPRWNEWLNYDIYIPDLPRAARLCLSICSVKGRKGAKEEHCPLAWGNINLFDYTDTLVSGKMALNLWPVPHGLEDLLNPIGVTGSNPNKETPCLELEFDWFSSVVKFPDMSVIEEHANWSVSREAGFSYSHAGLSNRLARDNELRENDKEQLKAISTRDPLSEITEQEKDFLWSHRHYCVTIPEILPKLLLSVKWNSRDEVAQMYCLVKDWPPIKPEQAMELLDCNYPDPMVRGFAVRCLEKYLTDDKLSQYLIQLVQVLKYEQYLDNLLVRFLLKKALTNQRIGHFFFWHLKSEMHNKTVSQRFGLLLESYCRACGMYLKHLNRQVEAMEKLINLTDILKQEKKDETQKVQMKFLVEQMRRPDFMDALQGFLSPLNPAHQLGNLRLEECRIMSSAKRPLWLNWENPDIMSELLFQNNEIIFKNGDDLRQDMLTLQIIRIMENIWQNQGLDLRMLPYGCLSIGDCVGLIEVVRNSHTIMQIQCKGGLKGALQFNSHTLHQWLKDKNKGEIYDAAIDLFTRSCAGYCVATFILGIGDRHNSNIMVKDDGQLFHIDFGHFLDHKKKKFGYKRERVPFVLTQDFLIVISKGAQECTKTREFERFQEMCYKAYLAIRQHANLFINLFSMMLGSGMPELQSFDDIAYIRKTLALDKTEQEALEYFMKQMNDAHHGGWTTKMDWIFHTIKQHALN
T1 sequence (P27986 whole entry partner): as the sequence (P27986 whole entry partner) above

IC50 (Human PI3K alpha)	IC50 (Human PI3K beta)	SMILES
100 to 1000 nM	100 to 1000 nM	Cc1nn2ccc(CNC(=N)N)cc2c1-c1nc(Cc2ccc(Cl)cc2)c(-c2nnc[nH]2)s1 [Compound 35, N-({3-[4-(4-chlorobenzyl)-5-(4H-1,2,4-triazol-3-yl)-1,3-thiazol-2-yl]-2-methylpyrazolo[1,5-a]pyridin-5-yl}methyl)guanidine]
> 1000 nM	< 100 nM	N#Cc1c(-c2ccncc2)sc(C(=O)O)c1Cc1ccc(Cl)cc1 [Compound 36]
> 1000 nM	100 to 1000 nM	Fc1cc(-c2nc(Cc3ccc(Cl)cc3)c(-c3nnc[nH]3)s2)ccn1 [Compound 37]
100 to 1000 nM	100 to 1000 nM	Cc1nn2ccc(CNCCCN)cc2c1-c1nc(Cc2ccc(Cl)cc2)c(-c2nnc[nH]2)s1 [Compound 38]
> 1000 nM	100 to 1000 nM	Clc1ccc(Cc2nc(-c3ccnnc3)sc2-c2nnc[nH]2)cc1 [Compound 39]
< 100 nM	< 100 nM	CC(=O)Nc1cc(-c2cc(C(O)c3ccc(Cl)cc3)c(-c3nnc[nH]3)s2)ccn1 (stereo not shown) [Compound 41]
100 to 1000 nM	100 to 1000 nM	OC(c1ccc(Cl)cc1)c1cc(-c2ccnc3ccccc23)sc1-c1nnc[nH]1 (stereo not shown) [Compound 42]
> 1000 nM	< 100 nM	Cc1cc(-c2cc([C@H](O)c3ccc(Cl)cc3)c(-c3nnc[nH]3)s2)ccn1 [Compound 43]
> 1000 nM	< 100 nM	CN(C)[C@H](c1ccc(Cl)cc1)c1cc(-c2ccncc2)sc1-c1nnc[nH]1 [Compound 44]
> 1000 nM	< 100 nM	O[C@H](c1ccc(Cl)cc1)c1cc(-c2ccnc(F)c2)sc1-c1nnc[nH]1 [Compound 45]
> 1000 nM	100 to 1000 nM	Cc1noc(C)c1-c1nc(Cc2ccc(Cl)cc2)c(-c2nnc[nH]2)s1 [Compound 46]
> 1000 nM	100 to 1000 nM	Clc1ccc(Cc2nc(-c3ccnc(Cl)c3)sc2-c2nnc[nH]2)cc1 [Compound 47, 4-(4-chlorobenzyl)-2-(2-chloropyridin-4-yl)-5-(4H-1,2,4-triazol-3-yl)thiazole]
100 to 1000 nM	100 to 1000 nM	N#Cc1cc(-c2cc([C@@H](O)c3ccc(Cl)cc3)c(-c3nnc[nH]3)s2)ccn1 [Compound 48]
> 1000 nM	> 1000 nM	OCCNc1cc(-c2cc(C(O)c3ccc(Cl)cc3)c(-c3nnc[nH]3)s2)ccn1 (stereo not shown) [Compound 49, 2-({4-[4-[(4-chlorophenyl)(hydroxy)methyl]-5-(4H-1,2,4-triazol-3-yl)-2-thienyl]pyridin-2-yl}amino)ethanol]
< 100 nM	< 100 nM	Cc1nn2ccc(CNC(=O)c3cnccn3)cc2c1-c1nc(Cc2ccc(Cl)cc2)c(-c2nnc[nH]2)s1 [Compound 50, N-({3-[4-(4-chlorobenzyl)-5-(4H-1,2,4-triazol-3-yl)-1,3-thiazol-2-yl]-2-methylpyrazolo[1,5-a]pyridin-5-yl}methyl)pyrazine-2-carboxamide]
> 1000 nM	< 100 nM	Clc1ccc(C(c2cc(-c3ccncc3)sc2-c2nnc[nH]2)N2CCC2)cc1 (stereo not shown) [Compound 51]
> 1000 nM	< 100 nM	OC(c1ccc(Cl)cc1)c1cc(-c2ccncc2)sc1-c1nnc[nH]1 (stereo not shown) [Compound 52]
100 to 1000 nM	100 to 1000 nM	Clc1ccc(Cc2nc(-c3ccnc4[nH]ccc34)sc2-c2ncn[nH]2)cc1 [Compound 53]
100 to 1000 nM	100 to 1000 nM	Cc1nn2ccc(CNCCN)cc2c1-c1nc(Cc2ccc(Cl)cc2)c(-c2nnc[nH]2)s1 [Compound 54]

IC50 (Human PI3K alpha)	IC50 (Human PI3K beta)	SMILES
> 1000 nM	> 1000 nM	O[C@@H](c1ccc(Cl)cc1)c1cc(-c2ccnnc2)sc1-c1nnc[nH]1 [Compound 55]
100 to 1000 nM	100 to 1000 nM	CC(=O)Nc1cc(-c2nc(Cc3ccc(Cl)cc3)c(-c3ncn[nH]3)s2)ccn1 [Compound 56, N-{4-[4-(4-chlorobenzyl)-5-(4H-1,2,4-triazol-3-yl)-1,3-thiazol-2-yl]pyridin-2-yl}acetamide]
100 to 1000 nM	100 to 1000 nM	OC(c1ccc(Cl)cc1)c1cc(-c2ccnc3sccc23)sc1-c1nnc[nH]1 (stereo not shown) [Compound 57]
> 1000 nM	100 to 1000 nM	CN1CCc2cc(Cl)ccc2C1c1cc(-c2ccncc2)sc1-c1ccn[nH]1 (stereo not shown) [Compound 58, 6-Chloro-2-methyl-1-[2-(1H-pyrazol-5-yl)-5-pyridin-4-yl-3-thienyl]-1,2,3,4-tetrahydroisoquinoline]
> 1000 nM	< 100 nM	O[C@H](c1ccc(Cl)cc1)c1cc(-c2ccnnc2)sc1-c1nnc[nH]1 [Compound 59]
> 1000 nM	100 to 1000 nM	CC(=O)Nc1cc(-c2nc(C(O)c3ccc(Cl)cc3)c(-c3ncc[nH]3)s2)ccn1 (stereo not shown) [Compound 60, N-{4-[4-[(4-chlorophenyl)(hydroxy)methyl]-5-(1H-imidazol-2-yl)-1,3-thiazol-2-yl]pyridin-2-yl}acetamide]
100 to 1000 nM	100 to 1000 nM	Cc1nn2ccc(CN3CCC(N)CC3)cc2c1-c1nc(Cc2ccc(Cl)cc2)c(-c2nnc[nH]2)s1 [Compound 61]
> 1000 nM	100 to 1000 nM	CNc1cc(-c2cc(C(O)c3ccc(Cl)cc3)c(-c3nnc[nH]3)s2)ccn1 (stereo not shown) [Compound 62]
> 1000 nM	> 1000 nM	CNc1cc(-c2nc(Cc3ccc(Cl)cc3)c(-c3nnc[nH]3)s2)ccn1 [Compound 63]
100 to 1000 nM	100 to 1000 nM	O=C1CCc2c(-c3cc(C(O)c4ccc(Cl)cc4)c(-c4nnc[nH]4)s3)ccnc2N1 (stereo not shown) [Compound 64]
> 1000 nM	< 100 nM	CN(C)[C@@H](c1ccc(Cl)cc1)c1cc(-c2ccncc2)sc1-c1nnc[nH]1 [Compound 65]
> 1000 nM	< 100 nM	Clc1ccc(Cc2nc(-c3ccncc3)sc2-c2cnc[nH]2)cc1 [Compound 66, 4-(4-chlorobenzyl)-5-(1H-imidazol-5-yl)-2-(pyridin-4-yl)thiazole]
100 to 1000 nM	> 1000 nM	CC(=O)Nc1cc(-c2nc(Cc3ccccc3Cl)c(-c3ncc[nH]3)s2)ccn1 [Compound 67]
> 1000 nM	100 to 1000 nM	OC(c1ccc(Cl)cc1)c1cc(-c2ncncc2F)sc1-c1nnc[nH]1 (stereo not shown) [Compound 68]
100 to 1000 nM	100 to 1000 nM	CC(=O)Nc1cc(-c2sc(-c3nnc[nH]3)c(Cc3ccc(Cl)cc3)c2C#N)ccn1 [Compound 71, N-{4-[4-(4-chlorobenzyl)-3-cyano-5-(4H-1,2,4-triazol-3-yl)-2-thienyl]pyridin-2-yl}acetamide]
100 to 1000 nM	100 to 1000 nM	Cc1nn2ccc(CN3CCNCC3)cc2c1-c1nc(Cc2ccc(Cl)cc2)c(-c2nnc[nH]2)s1 [Compound 72, 3-[4-(4-chlorobenzyl)-5-(4H-1,2,4-triazol-3-yl)-1,3-thiazol-2-yl]-2-methyl-5-(piperazin-1-ylmethyl)pyrazolo[1,5-a]pyridine]
> 1000 nM	100 to 1000 nM	CC(=O)Nc1cc(-c2nc(Cc3ccc(Cl)cc3)c(-c3ncc[nH]3)s2)ccn1 [Compound 73]
100 to 1000 nM	100 to 1000 nM	CC(=O)Nc1cc(-c2sc(C(=O)O)c(Cc3ccc(Cl)cc3)c2C#N)ccn1 [Compound 74]
> 1000 nM	< 100 nM	Nc1cc(-c2cc(C(O)c3ccc(Cl)cc3)c(-c3nnc[nH]3)s2)ccn1 (stereo not shown) [Compound 75]
